Test results as given in article PMC6259751, “Investigating Spectrum of Biological Activity of 4- and 5-Chloro-2-hydroxy-N-[2-(arylamino)-1-alkyl-2-oxoethyl]benzamides” (Molecules, 2011).
≈ marks a conversion by molar mass, not a printed value. Where “and” joins values, the source holds several entries; their conditions need not be identical. Identical values can stand only once. Like-named read-outs stand apart in the source and are kept apart here.

Legend:
[1] = tested on: Trichophyton mentagrophytes 445; experiment: In vitro antifungal susceptibility testing (broth microdilution); type: cell-based
[2] = tested on: Staphylococcus aureus CCM 4516/08; experiment: In vitro antibacterial susceptibility testing (broth microdilution); settings: read-out: MIC SA
[3] = tested on: Mycobacterium avium MA CNCTC My 330/88; experiment: In vitro antimycobacterial evaluation; type: cell-based; settings: IC90 value
[4] = tested on: Staphylococcus epidermidis H 6966/08; experiment: In vitro antibacterial susceptibility testing (broth microdilution); settings: read-out: MIC SE
[5] = tested on: Mycobacterium kansasii MK CNCTC My 235/80; experiment: In vitro antimycobacterial evaluation; type: cell-based; settings: IC90 value
[6] = tested on: Enterococcus sp. J 14365/08; experiment: In vitro antibacterial susceptibility testing (broth microdilution); settings: read-out: MIC EF
[7] = tested on: Mycobacterium tuberculosis MTB CNCTC My 331/88; experiment: In vitro antimycobacterial evaluation; type: cell-based; settings: IC90 value
[8] = tested on: Candida tropicalis 156; experiment: In vitro antifungal susceptibility testing (broth microdilution); type: cell-based; settings: M27-A2 for yeasts, IC80 value
[9] = Lipophilicity determination by RP-HPLC (capacity factor k / log k); type: physicochemical; settings: C18 column, MeOH 70% / H2O 30%, isocratic
Experimental: Hydrophobicities (log P/Clog P) of compounds 8 and 9 were calculated using two commercially available programs (ChemOffice Ultra 10.0 and ACD/LogP) and measured by means of RP-HPLC determination of capacity factors k with subsequent calculation of log k. The procedure was performed under isocratic conditions with methanol as an organic modifier in the mobile phase using an end-capped non-polar C18 stationary RP column. The results are shown in Table 1 and illustrated in Figure 1.
A Waters Alliance 2695 XE HPLC separation module and a Waters Photodiode Array Detector 2996 (Waters Corp., Milford, MA, USA) were used. A Symmetry® C18 5 μm, 4.6 × 250 mm, Part No. WAT054275 (Waters Corp., Milford, MA, USA) chromatographic column was used. The HPLC separation process was monitored by Empower™ 2 Chromatography Data Software, Waters 2009 (Waters Corp., Milford, MA, USA). A mixture of MeOH p.a. (70%) and H2O-HPLC – Mili-Q Grade (30%) was used as a mobile phase. The total flow of the column was 1.0 mL/min, injection volume, 30 μL, column temperature, 30 °C and sample temperature, 10 °C. The detection wavelength of 210 nm was chosen. The KI methanolic solution was used for the dead time (tD) determination. Retention times (tR) were measured in minutes. The capacity factors k were calculated using the Empower™ 2 Chromatography Data Software according to formula k = (tR - tD)/tD, where tR is the retention time of the solute, whereas tD denotes the dead time obtained using an unretained analyte. Log k, calculated from the capacity factor k, is used as the lipophilicity index converted to log P scale.

[10] = tested on: methicilin resistant Staphylococcus aureus H 5996/08; experiment: In vitro antibacterial susceptibility testing (broth microdilution)
[11] = 72h, M38-A for moulds, IC50 value, read-out: MIC TM
[12] = 120h, M38-A for moulds, IC50 value, read-out: MIC TM

| Structure (SMILES) | MIC [1, 11] [µM] | MIC [1, 12] [µM] | MIC ([2]; CCM4516, 24 h) [µM] | MIC ([2]; CCM4516, 48 h) [µM] | MIC ([3]; 14h) [µM] | MIC ([3]; 21h) [µM] | MIC ([4]; H6966/08, 24 h) [µM] | MIC ([4]; H6966/08, 48 h) [µM] | MIC ([5]; 14h) [µM] | MIC ([5]; 21h) [µM] | MIC ([6]; SP.J14365/08, 24 h) [µM] | MIC ([6]; SP.J14365/08, 48 h) [µM] | MIC ([7]; 14h) [µM] | MIC ([7]; 21h) [µM] | MIC ([8]; 24h) [µM] | MIC ([8]; 48h) [µM] | log k [9] | MIC ([10]; MRSA, 24 h, read-out: MIC MRSA) [µM] | MIC ([10]; MRSA, 48 h, read-out: MIC MRSA) [µM] | other results |
| --- | --- | --- | --- | --- | --- | --- | --- | --- | --- | --- | --- | --- | --- | --- | --- | --- | --- | --- | --- | --- |
| C[C@@H](NC(=O)c1cc(Cl)ccc1O)C(=O)Nc1cccc(Cl)c1 [8c, 5-chloro-N-{(1R)-2-[(3-chlorophenyl)amino]-1-methyl-2-oxoethyl}-2-hydroxybenzamide] | 0.49 (≈ 0.173 µg/mL) | 0.49 (≈ 0.173 µg/mL) | > 500 | > 500 | 125 (≈ 44.2 µg/mL) | 250 (≈ 88.3 µg/mL) | > 500 | > 500 | 62.5 (≈ 22.1 µg/mL) | 62.5 (≈ 22.1 µg/mL) | > 500 | > 500 | 62.5 (≈ 22.1 µg/mL) | 125 (≈ 44.2 µg/mL) | 31.2 (≈ 11 µg/mL) | 125 (≈ 44.2 µg/mL) | 0.41 and 0.4153 | > 500 | > 500 | MIC ([1]; conclusions, incubation time not stated, read-out: antifungal activity against Trichophyton mentagrophytes (MIC)): 0.49 µM (≈ 0.173 µg/mL) |
| O=C(N[C@H](Cc1ccccc1)C(=O)Nc1cccc(Cl)c1)c1cc(Cl)ccc1O [8g, N-{(1S/R)-1-benzyl-2-[(3-chlorophenyl)amino]-2-oxoethyl}-5-chloro-2-hydroxybenzamide] | 125 (≈ 53.7 µg/mL) | 125 (≈ 53.7 µg/mL) | > 500 | > 500 | 32 (≈ 13.7 µg/mL) | 32 (≈ 13.7 µg/mL) | > 500 | > 500 | 62.5 (≈ 26.8 µg/mL) | 62.5 (≈ 26.8 µg/mL) | > 500 | > 500 | 62.5 (≈ 26.8 µg/mL) | 62.5 (≈ 26.8 µg/mL) | 31.2 (≈ 13.4 µg/mL) | 125 (≈ 53.7 µg/mL) | 0.70 and 0.7066 | > 500 | > 500 |  |
| C[C@@H](NC(=O)c1cc(Cl)ccc1O)C(=O)Nc1ccc(Cl)cc1 [8h] | > 125 | > 125 | > 500 | > 500 | 125 (≈ 44.2 µg/mL) | 125 (≈ 44.2 µg/mL) | > 500 | > 500 | 125 (≈ 44.2 µg/mL) | 250 (≈ 88.3 µg/mL) | > 500 | > 500 | 8 (≈ 2.83 µg/mL) | 16 (≈ 5.65 µg/mL) | > 125 | > 125 | 0.4308 | > 500 | > 500 |  |
| CC(C)[C@H](NC(=O)c1cc(Cl)ccc1O)C(=O)Nc1ccc(Cl)cc1 [8i] | > 125 | > 125 | 7.81 (≈ 2.98 µg/mL) | 15.6 (≈ 5.96 µg/mL) | 62.5 (≈ 23.8 µg/mL) | 62.5 (≈ 23.8 µg/mL) | 31.2 (≈ 11.9 µg/mL) | 250 (≈ 95.3 µg/mL) | 62.5 (≈ 23.8 µg/mL) | 62.5 (≈ 23.8 µg/mL) | 31.2 (≈ 11.9 µg/mL) | 150 (≈ 57.2 µg/mL) | 32 (≈ 12.2 µg/mL) | 32 (≈ 12.2 µg/mL) | > 125 | > 125 | 0.6371 | 15.6 (≈ 5.96 µg/mL) | 15.6 (≈ 5.96 µg/mL) |  |
| CC(C)[C@@H](NC(=O)c1cc(Cl)ccc1O)C(=O)Nc1ccc(Cl)cc1 [8j] | 62.5 (≈ 23.8 µg/mL) | 62.5 (≈ 23.8 µg/mL) | 7.81 (≈ 2.98 µg/mL) | 7.81 (≈ 2.98 µg/mL) | 62.5 (≈ 23.8 µg/mL) | 62.5 (≈ 23.8 µg/mL) | 31.2 (≈ 11.9 µg/mL) | 125 (≈ 47.7 µg/mL) | 62.5 (≈ 23.8 µg/mL) | 62.5 (≈ 23.8 µg/mL) | 250 (≈ 95.3 µg/mL) | 500 (≈ 191 µg/mL) | 32 (≈ 12.2 µg/mL) | 32 (≈ 12.2 µg/mL) | > 125 | > 125 | 0.6125 | 7.81 (≈ 2.98 µg/mL) | 7.81 (≈ 2.98 µg/mL) | MIC ([10]; read-out: activity against methicillin-resistant Staphylococcus aureus (MIC)): 7.81 µM (≈ 2.98 µg/mL) |
| O=C(CNC(=O)c1cc(Cl)ccc1O)Nc1ccc(Cl)c(Cl)c1 [8m] | > 125 | > 125 | > 125 | > 125 | 62.5 (≈ 23.4 µg/mL) | 500 (≈ 187 µg/mL) | > 125 | > 125 | 125 (≈ 46.7 µg/mL) | 500 (≈ 187 µg/mL) | > 125 | > 125 | 125 (≈ 46.7 µg/mL) | 500 (≈ 187 µg/mL) | > 125 | > 125 | 0.4971 | > 125 | > 125 |  |
| C[C@H](NC(=O)c1cc(Cl)ccc1O)C(=O)Nc1ccc(Cl)c(Cl)c1 [8n] | > 125 | > 125 | > 500 | > 500 | 32 (≈ 12.4 µg/mL) | 62.5 (≈ 24.2 µg/mL) | > 500 | > 500 | 62.5 (≈ 24.2 µg/mL) | 500 (≈ 194 µg/mL) | > 500 | > 500 | 32 (≈ 12.4 µg/mL) | 32 (≈ 12.4 µg/mL) | > 125 | > 125 | 0.6698 | > 500 | > 500 |  |
